Data as given in ChEMBL document CHEMBL1153462, “Ulmosides A and B: flavonoid 6-C-glycosides from Ulmus wallichiana, stimulating osteoblast differentiation assessed by alkaline phosphatase” (Bioorg Med Chem Lett, 2009).
Activity calls are given as the source filed them. No cut-off for these calls is given here.

How the values were obtained:
[1] = tested on: Osteoblast; test: Osteogenic activity in neonatal Sprague-Dawley rat osteoblasts assessed as stimulation of alkaline phosphatase activity at 100 pM to 10 nM; assay type: functional, cell-based
[2] = tested on: Calvarial cell; test: Osteogenic activity in neonatal Sprague-Dawley rat calvarial cell culture assessed as stimulation of differentiation; assay type: functional, cell-based

Compound | Activity [1] | Activity [2]
O=c1c(O)c(-c2ccc(O)c(O)c2)oc2cc(O)c([C@@H]3O[C@H](CO)[C@@H](O)[C@H](O)[C@H]3O)c(O)c12 | Active | Active
O=C1c2c(cc(O)c([C@@H]3O[C@H](CO)[C@@H](O)[C@H](O)[C@H]3O)c2O)O[C@@H](c2ccc(O)cc2)[C@@H]1O | Active | Active
O=C1c2c(cc(O)c([C@@H]3O[C@H](CO)[C@@H](O)[C@H](O)[C@H]3O)c2O)O[C@@H](c2ccc(O)c(O)c2)[C@@H]1O | Active | Active
O=C1C[C@H](c2ccc(O)cc2)Oc2cc(O)c([C@@H]3O[C@H](CO)[C@@H](O)[C@H](O)[C@H]3O)c(O)c21 | Active | Active
